Read-outs that look alike come from different tables or passages of the source.
What was measured:
[1] = tested on: Escherichia coli (ECO) isolates; experiment: MIC of compounds alone and combined with antibacterials, broth microdilution (CLSI); assay type: cell-based; details: Escherichia coli, read-out: MIC
In short: (§1)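 First, log-phase suspensions are brought to 5.10^5 CFU/mL final in ca-MHB; plates then incubate 16-20 h at 35° C in air. Growth is judged visually, giving the compound MIC alone and the antibacterial MIC at each compound concentration.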

[2] = tested on: Klebsiella pneumoniae (KPN) isolates; experiment: as above; assay type: cell-based; details: Klebsiella pneumoniae, read-out: MIC
In short: as §1

O=C1N2CC(n3cccn3)=CC(C2)N1OC(F)(F)C(=O)[O-].[Li+] (stereo not drawn) [AF3] was tested, and the MIC ([1]; ECO 4133, alone) was 4 µg/mL, the MIC ([1]; ECO 5302, alone) was 4 µg/mL and the MIC ([1]; ECO 131119, alone) was 4 µg/mL. For the same compound, the MIC ([1]; ECO 180070, alone) was 4 µg/mL, the MIC ([1]; ECO 190314, alone) was 8 µg/mL and the MIC ([1]; ECO 190317, alone) was 4 µg/mL. It also gave an MIC ([1]; ECO 190457, alone) of 4 µg/mL, an MIC ([1]; ECO 190549, alone) of 4 µg/mL and an MIC ([1]; ECO 200159, alone) of 4 µg/mL. It also gave an MIC ([1]; ECO 200259, alone) of 4 µg/mL, an MIC ([1]; ECO 200344, alone) of 4 µg/mL and an MIC ([1]; ECO 260096, alone) of 16 µg/mL. It also gave an MIC ([1]; ECO 260304, alone) of 8 µg/mL, an MIC ([1]; ECO 260508, alone) of 8 µg/mL and an MIC ([1]; ECO (strain number on grid row 356, not shown), alone) of 8 µg/mL. The MIC ([1]; ECO RGN238, alone) was 8 µg/mL, the MIC ([1]; ECO UFR15, alone) was 8 µg/mL and the MIC ([1]; ECO UFR16, alone) was 8 µg/mL. For the same compound, the MIC ([1]; ECO UFR17, alone) was over 32 µg/mL, the MIC ([1]; ECO UFR18, alone) was 8 µg/mL and the MIC ([1]; ECO UFR19, alone) was 8 µg/mL. It also gave an MIC ([1]; ECO UFR32, alone) of 8 µg/mL, an MIC ([1]; ECO UFR39, alone) of 8 µg/mL and an MIC ([1]; ECO UFR41, alone) of 8 µg/mL. It also gave an MIC ([1]; ECO UFR45, alone) of 4 µg/mL, an MIC ([1]; ECO UFR52, alone) of 8 µg/mL and an MIC ([1]; ECO UFR61O, alone) of 16 µg/mL. It also gave an MIC ([1]; ECO UFR62, alone) of 8 µg/mL, an MIC ([1]; ECO UFR74, alone) of 8 µg/mL and an MIC ([1]; ECO UFR86, alone) of 16 µg/mL. For the same compound, the MIC ([1]; ECO UFR174, alone) was 4 µg/mL, the MIC ([1]; ECO UFR175, alone) was 16 µg/mL and the MIC ([1]; ECO UFR176, alone) was 8 µg/mL. For the same compound, the MIC ([1]; ECO UFR184, alone) was 8 µg/mL, the MIC ([1]; ECO UFR208, alone) was 16 µg/mL and the MIC ([1]; ECO UFR209, alone) was 8 µg/mL. For the same compound, the MIC ([1]; ECO UFR210, alone) was 4 µg/mL, the MIC ([1]; ECO UFR211, alone) was 8 µg/mL and the MIC ([1]; ECO UFR212, alone) was 8 µg/mL. For the same compound, the MIC ([1]; ECO URF20, alone) was 8 µg/mL, the MIC ([1]; strain ECO UFR177, compound alone) was 8 µg/mL and the MIC ([1]; strain ECO UFR178, compound alone) was 16 µg/mL. It also gave an MIC ([1]; strain ECO UFR179, compound alone) of 16 µg/mL, an MIC ([1]; strain ECO UFR180, compound alone) of 8 µg/mL and an MIC ([1]; strain ECO UFR181, compound alone) of 16 µg/mL. For the same compound, the MIC ([1]; strain ECO UFR182, compound alone) was 16 µg/mL, the MIC ([1]; strain ECO UFR183, compound alone) was 32 µg/mL and the MIC ([1]; strain ECO UFR186, compound alone) was 8 µg/mL. The MIC ([1]; strain ECO UFR187, compound alone) was 32 µg/mL, the MIC ([1]; strain ECO UFR189, compound alone) was 8 µg/mL and the MIC ([1]; strain ECO UFR190, compound alone) was 8 µg/mL. It also gave an MIC ([1]; strain ECO UFR191, compound alone) of 8 µg/mL, an MIC ([1]; strain ECO UFR204, compound alone) of 8 µg/mL and an MIC ([1]; strain ECO UFR205, compound alone) of 8 µg/mL. The MIC ([1]; strain ECO UFR206, compound alone) was 16 µg/mL, the MIC ([1]; strain ECO UFR252GO, compound alone) was 8 µg/mL and the MIC ([1]; strain ECO UFR255, compound alone) was 4 µg/mL. The MIC ([2]; BAA1898, KPN BAA-1898, alone) was 16 µg/mL, the MIC ([2]; KPN 6299, alone) was 16 µg/mL and the MIC ([2]; KPN 110376, alone) was 16 µg/mL. It also gave an MIC ([2]; KPN 121206, alone) of 16 µg/mL, an MIC ([2]; KPN 131119, alone) of 8 µg/mL and an MIC ([2]; KPN 140513, alone) of 32 µg/mL. It also gave an MIC ([2]; KPN 160143, alone) of 4 µg/mL, an MIC ([2]; KPN 190128, alone) of 32 µg/mL and an MIC ([2]; KPN 190270, alone) of 32 µg/mL. For the same compound, the MIC ([2]; KPN 190425, alone) was 16 µg/mL, the MIC ([2]; KPN 190551, alone) was 4 µg/mL and the MIC ([2]; KPN 200047, alone) was 4 µg/mL. The MIC ([2]; KPN 200327, alone) was 4 µg/mL, the MIC ([2]; KPN 260251, alone) was 16 µg/mL and the MIC ([2]; KPN 260252, alone) was over 32 µg/mL. For the same compound, the MIC ([2]; KPN 260376, alone) was 4 µg/mL, the MIC ([2]; KPN 270077, alone) was over 32 µg/mL and the MIC ([2]; KPN 700603, alone) was 32 µg/mL. For the same compound, the MIC ([2]; KPN ARA, alone) was 8 µg/mL, the MIC ([2]; KPN LIB, alone) was 8 µg/mL and the MIC ([2]; KPN UFR22_O, alone) was 16 µg/mL. It also gave an MIC ([2]; KPN UFR23, alone) of 8 µg/mL, an MIC ([2]; KPN UFR24, alone) of 32 µg/mL and an MIC ([2]; KPN UFR25, alone) of 8 µg/mL. The MIC ([2]; KPN UFR27, alone) was 16 µg/mL, the MIC ([2]; KPN UFR28, alone) was 16 µg/mL and the MIC ([2]; KPN UFR33, alone) was over 32 µg/mL. For the same compound, the MIC ([2]; KPN UFR42, alone) was 16 µg/mL, the MIC ([2]; KPN UFR43, alone) was 8 µg/mL and the MIC ([2]; KPN UFR46, alone) was 32 µg/mL. For the same compound, the MIC ([2]; KPN UFR53, alone) was 8 µg/mL, the MIC ([2]; KPN UFR65, alone) was 32 µg/mL and the MIC ([2]; KPN UFR66, alone) was 32 µg/mL. The MIC ([2]; KPN UFR67, alone) was 32 µg/mL, the MIC ([2]; KPN UFR68, alone) was 16 µg/mL and the MIC ([2]; KPN UFR76, alone) was over 32 µg/mL. It also gave an MIC ([2]; KPN UFR77, alone) of 8 µg/mL, an MIC ([2]; KPN UFR78, alone) of over 32 µg/mL and an MIC ([2]; KPN UFR79, alone) of 32 µg/mL. The MIC ([2]; KPN UFR80, alone) was 32 µg/mL, the MIC ([2]; KPN UFR81, alone) was 16 µg/mL and the MIC ([2]; KPN UFR215, alone) was 32 µg/mL. It also gave an MIC ([2]; KPN UFR216, alone) of 4 µg/mL, an MIC ([2]; KPN UFR217, alone) of 8 µg/mL and an MIC ([2]; KPN UFR218, alone) of 4 µg/mL. For the same compound, the MIC ([2]; KPN UFR219, alone) was 16 µg/mL, the MIC ([2]; KPN UFR220, alone) was 4 µg/mL and the MIC ([2]; KPN UFR221, alone) was 4 µg/mL. It also gave an MIC ([2]; KPN UFR222, alone) of 8 µg/mL, an MIC ([2]; KPN UFR227O, alone) of over 32 µg/mL and an MIC ([2]; strain KPN 140347, compound alone) of 32 µg/mL. For the same compound, the MIC ([2]; strain KPN UFR162, compound alone) was 16 µg/mL, the MIC ([2]; strain KPN UFR163, compound alone) was 16 µg/mL and the MIC ([2]; strain KPN UFR164, compound alone) was 16 µg/mL. The MIC ([2]; strain KPN UFR165, compound alone) was 16 µg/mL, the MIC ([2]; strain KPN UFR166, compound alone) was over 32 µg/mL and the MIC ([2]; strain KPN UFR167, compound alone) was over 32 µg/mL. For the same compound, the MIC ([2]; strain KPN UFR168, compound alone) was 16 µg/mL, the MIC ([2]; strain KPN UFR169, compound alone) was over 32 µg/mL and the MIC ([2]; strain KPN UFR170, compound alone) was 16 µg/mL. It also gave an MIC ([2]; strain KPN UFR171, compound alone) of 8 µg/mL, an MIC ([2]; strain KPN UFR172, compound alone) of 8 µg/mL and an MIC ([2]; strain KPN UFR229O, compound alone) of 32 µg/mL.
